Experimental data as given in US20040247537A1, “Uv-screening peptide-flavonoid conjugates” (priority 2001, published 2004).
Where “and” joins values, the source holds several entries; their conditions need not be identical. Equal entries are not always repeated.

Columns and labels:
[1] = test system: skin (buttocks) of three volunteers, epidermis; assay: Penetration depth into the skin (color reaction on biopsy slices); type: in vivo; settings: human
Excerpt: The essential condition is the existence of a specific detection method, which can be used to visualize the presence of particular sunscreen component. In case of quercetin one can take advantage of the existence of ortho dihydroxybenzene (catechol) configuration on the benzene ring B. Different colorimetric methods for catechols have been described. We choose the reaction described in J. Invest Dermatol., 70:197, 1978, (S. Pavel et al.).
Skin penetration study were executed using the following preparations:
1. Quercetin (1%) in cremor cetomacrogolis FNA (CMC)
2. Querceti-gelatin (small molecular weight fraction) (10-20%) in CMC.
3. Quercetin-gelatin (large molecular weight fraction) (10-20%) in CMC.
4. Catechol (1%) (as a penetration marker) in CMC.
The preparations were applied to the skin (buttocks) of three volunteers. The penetration times were 30 min, 1 hour and 3 hours. After each penetration time a biopsy (4 mm) was taken after local anesthesia. The biopsy material was frozen in liquid nitrogen and kept for the further analysis.
The biopsy material were cut in consecutive slices of 8 um thick The slices were incubated in a selected solution to achieve the color characteristic of catecholic structures. The depth of penetration was measured visually and expressed as a percentage penetrated epidermis, as follows: […]

[2] = Chelating capacity: free Fe3+ by ion chromatography; type: physicochemical; settings: test samples b: Fe2(SO4)3 instead of FeSO4, mixed 1:1 with test solution, 10 minutes at 37° C.; iron alone 0.50
Excerpt: (§1) The amount of free Fe^2+ and Fe^3+ can be determined by ion-chromatography.
(§2) Gelatin has a very high affinity to Dionex column material that is used in the determination of iron ions. Gelatin will not elute from the column and thereby changes the characteristics of the column so that the separation is not stable. To prevent this a solid state extraction (SPE) column is used to separate the metal ions from the gelatin matrix. After this pretreatment the sample is conservated with 10 millimolar hydrochloric acid. The sample is then injected into the ion-chromatograph. The metal-ions form a complex with the pyridine-2,6-dicarboxylic acid (PDCA). The complexed iron ions are then separated by their differences in affinity to the column material, which has as well anion as cation characteristics (mixed mode). […] The signals obtained at the retention times known for Fe^2+ and Fe^3+ are proportional to the concentrations, which are calculated from a calibration curve.
(§3) A Dionex OnGuard-RP P/N 039595 column was conditioned with 5 ml methanol and 10 ml de-ionized water. […] 5 ml of the eluate is quantitatively pipetted into a 10 ml volumetric flask and 20 mM hydrochloric acid was added up to 10.00 ml. […]
(§4) In the same way, test samples 1b, 2b, 3b and 4b were prepared with Fe2(SO4)3 instead of FeSO4. […] The amounts of free Fe^2+ or Fe^3+ were determined by the method described above.

[3] = test system: skin of volunteer subjects (skin types III or IV), UV-A radiation; assay: UV-A protection test on volunteer subjects (MPD, SPF); type: in vivo, human; settings: one value per volunteer
Procedure: The test is performed on volunteer subjects with normal skin types III (Burns moderately, tans gradually) or IV (Burns minimally; tans well). The subjects have no history of photo-sensitivity, are not using systematic medications and have not been exposed to direct sunlight for the previous 6 weeks.
Two test sites of 5×10 cm, each test site divided in 6 sub-sites, are marked on the back of the subjects between the waist line and the shoulder blades. One test site is not treated and therefor unprotected. On the other test site 100 mg sunscreen product is applied uniformly to the skin so that the amount of the UV-absorbing compound applied is about 2 mg per m2. In case of the quercetin-gelatin compound the amount applied is such that also in this case 2 mg/m2 of the linked quercetin is applied, The applied sunscreen is allowed to dry for about 15 minutes.
A series of six doses of UV-A radiation, increasing in energy is applied to each test site using a UV-A Sellas Sun 2000 (irradiance about 50 milliWatt/cm^2 at 30 cm). […]
The MPD (minimal pigmenting dose) of each test site is determined visually after 3 hours of exposure. The MPD is defined as the quantity of radiation energy required to produce the first unambiguous pigmented reaction.
The SPF (Sun protection factor) is calculated as the quotient of […].

[4] = Chelating capacity: free Fe2+ by ion chromatography; type: physicochemical; settings: test samples a: 1 millimol/l FeSO4 solution mixed 1:1 with test solution, ethanol:water 1:3, 10 minutes at 37° C.; iron alone 0.50
Excerpt: as §1, §2, §3, §4

Penetration depth, percentage penetrated epidermis ([1]; 30 min) [%]	Penetration depth, percentage penetrated epidermis ([1]; 1 h) [%]	Penetration depth, percentage penetrated epidermis ([1]; 3 h) [%]	SMILES	Amount of free Fe^3 [2] [millimol per liter]	MPD (minimal pigmenting dose), protected ([3]; protected test site, about 2 mg per m2 UV-absorbing compound (linked quercetin) applied, UV-A doses 33 to 8 joule/cm^2, determined visually after 3 hours)	SPF (Sun protection factor) ([3]; quotient of the MPDs of protected and unprotected skin, UV-A)	Amount of free Fe^2+ [4] [millimol per liter]
40	60	90	Oc1ccccc1O [Catechol (1%), Catechol]				
30	50	80	O=c1c(O)c(-c2ccc(O)c(O)c2)oc2cc(O)cc(O)c12 [Quercetin, quercetin]	0.20	14 Joule/cm^2 and 19 Joule/cm^2	1.8 and 2.4	0.16
